Measured values: a compilation of properties of binary mixtures (doi:10.1039/c6ra15476j)

Assay: xn = mol fraction of the nth substance listed
Conditions: 100 kPa

CC(=O)c1ccccc1 + CCCC[n+]1ccn(C)c1.F[P-](F)(F)(F)(F)F
viscosity [mPa·s]
Conditions | 293.15 K | 303.15 K | 313.15 K | 323.15 K | 333.15 K
x1 = 0.0504 | 176 | 89 | 62 | 41 | 27.6
x1 = 0.0913 | 129 | 68 | 45.8 | – | –
x1 = 0.1983 | 88 | 48.5 | 35 | 26.5 | 18.6
x1 = 0.2999 | 81 | – | 32.3 | 23.2 | –
x1 = 0.3908 | 73 | 40.9 | 28.3 | – | 14.2
x1 = 0.4973 | 60 | 32.4 | – | 15.2 | 10.2
x1 = 0.5999 | – | 22.9 | – | 11.6 | 9.3
x1 = 0.697 | 35.6 | 18.5 | 12.3 | – | 8.3
x1 = 0.7999 | 28.2 | 14.3 | 8 | – | 4.67
x1 = 0.9002 | 16.2 | 7.7 | 5.6 | 4.34 | –
x1 = 0.95 | 8.4 | 4.64 | 3.57 | – | 1.62
x1 = 1 | 1.91 | 1.65 | 1.37 | 1.17 | –

CCCC[n+]1ccn(C)c1.F[P-](F)(F)(F)(F)F + CC(=O)c1ccccc1
x2 = 0
Conditions | viscosity [mPa·s]
293.15 K | 293
303.15 K | 162
323.15 K | 62
333.15 K | 42.3

CC(=O)c1ccccc1 + CCOS(=O)(=O)[O-].CC[n+]1ccn(C)c1
Conditions | speed of sound, 293.15 K [m/s] | speed of sound, 303.15 K [m/s] | speed of sound, 313.15 K [m/s] | speed of sound, 323.15 K [m/s] | speed of sound, 333.15 K [m/s] | viscosity, 293.15 K [mPa·s] | viscosity, 303.15 K [mPa·s] | viscosity, 313.15 K [mPa·s] | viscosity, 323.15 K [mPa·s] | viscosity, 333.15 K [mPa·s]
x1 = 0.0505 | 1691 | 1663 | 1637 | 1611 | – | 68 | 44 | 29 | 20.6 | –
x1 = 0.0997 | 1684 | 1656 | 1628 | 1601 | – | 56 | 35 | 23.9 | 17.1 | –
x1 = 0.2 | 1669 | – | 1610 | 1581 | 1521 | 40 | – | 18 | 13.1 | 11.9
x1 = 0.3008 | 1652 | 1621 | 1591 | – | 1503 | 30.2 | 21.3 | 14.5 | – | 9.6
x1 = 0.4002 | 1634 | – | 1571 | 1540 | 1485 | 22.6 | – | 11.9 | 9.3 | 8.3
x1 = 0.5006 | 1615 | 1583 | 1550 | 1518 | – | 14.9 | 11.8 | 9.8 | 8 | 6.8
x1 = 0.5999 | 1596 | 1562 | 1529 | – | 1448 | 10.1 | 8.4 | 7.2 | – | 4.9
x1 = 0.6921 | 1577 | 1542 | – | 1473 | 1428 | 6.9 | 6.6 | – | 3.4 | 3.6
x1 = 0.7973 | – | – | 1481 | 1446 | 1404 | – | – | 4.6 | 2.19 | 1.86
x1 = 0.8999 | 1526 | 1489 | – | – | 1379 | 3.7 | 2.88 | – | – | 1.66
x1 = 0.9502 | 1511 | – | – | 1402 | 1365 | 3.04 | – | – | 1.68 | 1.46
x1 = 1 | 1497 | – | – | – | 1352 | 1.91 | – | – | – | 1.02

CC(=O)c1ccccc1 + CC[n+]1ccn(C)c1.F[B-](F)(F)F
Conditions | speed of sound, 293.15 K [m/s] | speed of sound, 303.15 K [m/s] | speed of sound, 313.15 K [m/s] | speed of sound, 323.15 K [m/s] | speed of sound, 333.15 K [m/s] | viscosity, 293.15 K [mPa·s] | viscosity, 303.15 K [mPa·s] | viscosity, 313.15 K [mPa·s] | viscosity, 323.15 K [mPa·s] | viscosity, 333.15 K [mPa·s]
x1 = 0.0416 | 1640 | 1608 | 1581 | 1555 | – | 32.1 | 21.2 | 15.4 | 11.6 | –
x1 = 0.094 | 1638 | – | 1572 | – | – | 25.5 | – | 12.3 | – | –
x1 = 0.195 | 1628 | 1591 | 1560 | 1530 | 1502 | 21.7 | 14.3 | 10.9 | 8.1 | 7.2
x1 = 0.2999 | – | 1581 | 1550 | 1519 | 1490 | – | 12.9 | 9.5 | 7.3 | 5.8
x1 = 0.4003 | – | 1571 | 1538 | – | – | – | 11 | 8.1 | – | –
x1 = 0.4989 | 1598 | – | 1527 | – | 1462 | 12.3 | – | 6 | – | 3.49
x1 = 0.5979 | 1583 | 1546 | 1511 | 1477 | 1442 | 8.7 | 6.5 | 5.2 | 4.14 | 3.39
x1 = 0.7005 | 1564 | 1528 | 1491 | 1457 | 1422 | 6.8 | 4.97 | 3.84 | 3.1 | 2.58
x1 = 0.8007 | 1543 | 1507 | 1472 | 1437 | 1400 | 4.74 | 3.61 | 3.09 | 2.36 | 2
x1 = 0.8918 | 1522 | 1485 | – | 1413 | – | 3.2 | 2.56 | – | 1.76 | –
x1 = 0.9498 | 1509 | 1471 | – | 1398 | – | 2.45 | 2.03 | – | 1.42 | –
x1 = 1 | 1497 | 1460 | 1423 | 1387 | – | 1.91 | 1.65 | 1.37 | 1.17 | –

CCOS(=O)(=O)[O-].CC[n+]1ccn(C)c1 + CC(=O)c1ccccc1
x2 = 0
Conditions | speed of sound [m/s] | viscosity [mPa·s]
293.15 K | 1695 | 98
303.15 K | 1670 | 60
323.15 K | 1623 | 27.9

CC[n+]1ccn(C)c1.F[B-](F)(F)F + CC(=O)c1ccccc1
x2 = 0
Conditions | speed of sound [m/s] | viscosity [mPa·s]
303.15 K | 1618 | 28.2
313.15 K | 1595 | 20
323.15 K | 1572 | 14.9
333.15 K | 1550 | 11.5
